Columns and labels:
TRPC3 homomer = biological target: T1, TRPC3 homomer (Homo sapiens, UniProt Q13507); experiment: Whole-cell patch-clamp, inhibition of TRPC3 homomer; format: cell-based
T1 construct: expressed in transfected cells
T1 sequence (Q13507 1-921): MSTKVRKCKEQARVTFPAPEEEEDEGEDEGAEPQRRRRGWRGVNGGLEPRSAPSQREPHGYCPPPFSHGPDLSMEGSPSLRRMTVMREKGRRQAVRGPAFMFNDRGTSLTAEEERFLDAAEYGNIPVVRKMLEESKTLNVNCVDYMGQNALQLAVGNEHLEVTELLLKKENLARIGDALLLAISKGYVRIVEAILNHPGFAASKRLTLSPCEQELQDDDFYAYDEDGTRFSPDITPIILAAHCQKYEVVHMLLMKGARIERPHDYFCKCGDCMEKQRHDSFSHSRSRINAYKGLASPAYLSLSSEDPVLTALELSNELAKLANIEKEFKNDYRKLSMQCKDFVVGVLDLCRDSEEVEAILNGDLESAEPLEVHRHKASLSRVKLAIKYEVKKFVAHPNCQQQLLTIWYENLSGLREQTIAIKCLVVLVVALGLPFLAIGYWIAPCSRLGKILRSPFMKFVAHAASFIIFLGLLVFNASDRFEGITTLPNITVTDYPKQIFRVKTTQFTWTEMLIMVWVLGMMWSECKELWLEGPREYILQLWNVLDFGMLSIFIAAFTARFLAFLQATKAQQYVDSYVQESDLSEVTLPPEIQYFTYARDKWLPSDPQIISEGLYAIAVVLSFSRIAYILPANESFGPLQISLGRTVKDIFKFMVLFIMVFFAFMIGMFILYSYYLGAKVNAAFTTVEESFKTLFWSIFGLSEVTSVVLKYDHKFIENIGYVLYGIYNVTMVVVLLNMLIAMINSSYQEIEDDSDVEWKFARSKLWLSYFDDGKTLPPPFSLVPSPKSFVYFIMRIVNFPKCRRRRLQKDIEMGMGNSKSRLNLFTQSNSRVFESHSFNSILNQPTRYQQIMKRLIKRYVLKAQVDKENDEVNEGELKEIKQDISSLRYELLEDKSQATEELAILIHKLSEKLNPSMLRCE
Description: Error bars represent the standard error of the mean (SEM, n = 6 independent
Error bars represent the standard error of the
110 mean (SEM, n = 5 independent cells).

hTRPC5 = biological target: T2, hTRPC5 (Homo sapiens, UniProt Q9UL62); experiment: Calcium flux assay (Calcium 5 kit, EA 100 nM), hTRPC5 in HEK293T cells; format: cell-based; settings: calcium flux screening, 10 μM
T2 construct: Full-length, non-tagged hTRPC1 and hTRPC5 constructs are used for calcium flux assays; expressed in transfected cells; host or cells: HEK293T
T2 sequence (Q9UL62 1-973): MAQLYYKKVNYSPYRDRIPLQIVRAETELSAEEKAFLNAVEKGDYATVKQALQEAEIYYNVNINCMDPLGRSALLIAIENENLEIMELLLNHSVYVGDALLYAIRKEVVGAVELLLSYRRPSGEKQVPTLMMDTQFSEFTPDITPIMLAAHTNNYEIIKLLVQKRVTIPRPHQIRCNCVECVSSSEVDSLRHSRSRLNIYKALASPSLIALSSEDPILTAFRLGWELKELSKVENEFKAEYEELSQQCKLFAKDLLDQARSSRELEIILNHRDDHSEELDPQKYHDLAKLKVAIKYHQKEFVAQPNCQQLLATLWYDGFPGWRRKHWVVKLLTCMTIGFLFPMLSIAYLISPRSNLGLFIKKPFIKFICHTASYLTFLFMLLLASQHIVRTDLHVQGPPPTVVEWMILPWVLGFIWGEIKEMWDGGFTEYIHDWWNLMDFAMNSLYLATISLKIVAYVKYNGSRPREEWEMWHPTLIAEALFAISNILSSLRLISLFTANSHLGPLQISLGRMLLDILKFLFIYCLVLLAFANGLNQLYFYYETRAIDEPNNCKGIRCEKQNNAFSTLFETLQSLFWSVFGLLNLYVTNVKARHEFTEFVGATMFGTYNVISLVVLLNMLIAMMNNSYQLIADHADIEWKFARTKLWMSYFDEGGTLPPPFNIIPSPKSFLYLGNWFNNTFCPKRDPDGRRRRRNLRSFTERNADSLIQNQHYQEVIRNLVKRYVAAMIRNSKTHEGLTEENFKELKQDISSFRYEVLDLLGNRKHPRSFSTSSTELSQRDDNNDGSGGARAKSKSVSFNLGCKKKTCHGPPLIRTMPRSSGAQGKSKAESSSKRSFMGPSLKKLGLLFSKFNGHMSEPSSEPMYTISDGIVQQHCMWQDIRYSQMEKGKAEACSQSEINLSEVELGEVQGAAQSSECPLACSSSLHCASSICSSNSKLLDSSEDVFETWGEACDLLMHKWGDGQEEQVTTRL
Protocol: Five minutes before measurement, molecules are added to each well at a final concentration of 10 µM under light-sensitive conditions.

TRPC5 homomers = biological target: T3, TRPC5 homomers (Homo sapiens, UniProt Q9UL62); experiment: Whole-cell patch-clamp, inhibition of EA-activated TRPC5 homomers; format: cell-based
T3 construct: full length hTRPC5 (TRPC5 wild type (WT)); expressed in transfected cells; host or cells: HEK293T
T3 sequence (Q9UL62 1-973): T2 sequence (Q9UL62 1-973)

mCPP-induced anxiety [1] = experiment: Open-field test (OFT), mCPP-induced anxiety model; settings: single dose
mCPP-induced anxiety [2] = experiment: Elevated plus maze (EPM) test, mCPP-induced anxiety model; settings: mCPP mice; single dose; JD03-02 3, 10, 30 mg/kg i.g.

CN(C)CCCCn1c(=O)c2c(nc(Oc3cccc(Cl)c3)n2Cc2ccc(Cl)cc2)n(C)c1=O [H08]
IC50 (TRPC3 homomer): > 10 µM | inhibition of TRPC3 (TRPC3 homomer; 10 μM): no more than 40% | inhibitory activity toward TRPC5 homomers (in words) (hTRPC5): minimal effect | concentration at which inhibition of TRPC5 homomers appears (TRPC5 homomers): > 5 µM | HillSlope, TRPC5 (TRPC5 homomers; whole-cell patch-clamp): 1.990 | IC50 (TRPC5 homomers; whole-cell patch-clamp): 8.5 µM | HillSlope, TRPC5 (TRPC5 homomers; whole-cell patch-clamp, listed as JD03-02): > 1 | OFT central zone entries and time in central zone (mCPP-induced anxiety [1]; mCPP mice): enhancing numbers of central zone entries and time spent in the central zone | OFT total distance traveled (mCPP-induced anxiety [1]; mCPP-induced anxiety-like mice): no significant effect | EPM open arm entries and time in open arms (mCPP-induced anxiety [2]): increasing numbers of open arm entries and time spent in open arms
